In ChEMBL document CHEMBL1138709, “Biological evaluation of novel estrogen-platinum(II) hybrid molecules on uterine and ovarian cancers-molecular modeling studies” (Bioorg Med Chem Lett, 2004):

Key:
[1] = tested on: A2780; experiment: inhibitory concentration against estrogen independent human ovarian cancer cell line A2780wt; assay type: functional, cell-based
[2] = inhibitory concentration against estrogen independent human uterus cancer cell line HEC-1-A; assay type: functional, cell-based; conditions: cancer cell lines
[3] = tested on: A2780; experiment: inhibitory concentration against estrogen independent human ovarian cancer cell line A2780cp; assay type: functional, cell-based
[4] = molecular target: T1, Estrogen receptor (Homo sapiens, UniProt Q92731+P03372); experiment: Inhibition of estrogen dependent human ovarian cancer OVCAR-3 cell proliferation; assay type: functional, cell-based
[5] = molecular target: T1, Estrogen receptor; experiment: Inhibition of estrogen dependent human uterus cancer Ishikawa cell proliferation; assay type: functional, cell-based
[6] = inhibitory concentration against estrogen independent human uterus cancer cell line KLE; assay type: functional, cell-based; conditions: cancer cell lines
[7] = tested on: HeLa; experiment: inhibitory concentration against estrogen independent human uterus cancer cell line HeLa; assay type: functional, cell-based
[8] = molecular target: T1, Estrogen receptor; experiment: Inhibition of estrogen dependent human uterus cancer RL-95-2 cell proliferation; assay type: functional
[9] = molecular target: T1, Estrogen receptor; experiment: Inhibition of estrogen dependent human ovarian cancer SKOV-3 cell proliferation; assay type: functional, cell-based; conditions: sk-ov-3

IC50 [1]: 0.7 µM | IC50 [2]: 11.7 µM | IC50 [3]: 6.5 µM | IC50 [4]: 2.5 µM | IC50 [5]: 7.9 µM | IC50 [6]: 12.5 µM | IC50 [7]: 3.6 µM | IC50 [8]: 10.3 µM | IC50 [9]: 5.8 µM
Sequence: CISPLATIN
